Here are results for 8 compounds from PubChem BioAssay (NCI).

Some test systems named below: CAKI-1 renal; NCI-H460 lung; SN12C renal; K-562 leukemia; UO-31 renal; KM12 colon; A549 NSCLC; A498 renal; SF-539 CNS; M14 melanoma.
Holding throughout (assay): inhibition of tumour cell growth, NCI panel, 48 h

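Interpolation was linear, between the two tested concentrations surrounding the appropriate level; five concentrations were tested over 48 hours in 96-well plates. Abbreviation: GI50, concentration required for 50% inhibition of growth. TGI: concentration producing complete growth inhibition.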 Bounds are passed on as bounds.

`CN1C(=NCCO)NS(=O)(=O)c2ccccc21`: the TGI in the experiment on CAKI-1 renal, in the experiment with NCI-H460 lung, in the experiment with SN12C renal, in the experiment with K-562 leukemia, in the experiment with UO-31 renal and with KM12 colon was over 100 µM each time. Moreover, the TGI with A549 NSCLC, in the experiment with A498 renal, with SF-539 CNS and in the experiment on M14 melanoma was over 100 µM in each case.
As for `O=C(CO)C1CC2C=CC1C2` (stereo not given), the TGI with CAKI-1 renal, with NCI-H460 lung, with SN12C renal, with K-562 leukemia, in the experiment on UO-31 renal and with KM12 colon was over 100 µM throughout. The TGI with A549 NSCLC, in the experiment with A498 renal, with SF-539 CNS and in the experiment with M14 melanoma was over 100 µM in each case.
Take `O=C(c1ccco1)c1c(C(F)(F)F)n([O-])c2cc(F)c(F)cc2[n+]1=O`: the GI50 was 0.44 µM in the experiment on CAKI-1 renal; 0.252 µM in the experiment with NCI-H460 lung; 0.307 µM in the experiment with SN12C renal; 0.079 µM in the experiment on K-562 leukemia; 0.546 µM with UO-31 renal; 0.7 µM with KM12 colon. For the same compound, the GI50 with A549 NSCLC was 1.32 µM; with A498 renal, 4.88 µM; in the experiment with SF-539 CNS, 0.329 µM; in the experiment on M14 melanoma, 0.225 µM. The TGI in the experiment on CAKI-1 renal came out at 1.37 µM; in the experiment on NCI-H460 lung, 5.78 µM; in the experiment with SN12C renal, 1.01 µM; in the experiment with K-562 leukemia, 8.34 µM; in the experiment with UO-31 renal it was 1.03 µM; in the experiment on KM12 colon it was 2 µM. The TGI in the experiment on A549 NSCLC stood at 3.12 µM; with A498 renal, 17.3 µM; with SF-539 CNS, 0.679 µM; with M14 melanoma it was 0.528 µM.
Regarding `C[P+]1(c2ccccc2)CCCCC1`, the TGI in the experiment with CAKI-1 renal, with NCI-H460 lung, in the experiment with SN12C renal, in the experiment with K-562 leukemia, in the experiment on UO-31 renal and in the experiment on KM12 colon was over 100 µM throughout. In addition, the TGI in the experiment on A549 NSCLC, in the experiment on A498 renal, in the experiment on SF-539 CNS and in the experiment on M14 melanoma was over 100 µM in each case.
On to `Clc1ccc([I+]c2ccc(Cl)cc2Cl)c(Cl)c1`, for which the GI50 in the experiment on CAKI-1 renal was 1.61 µM; with NCI-H460 lung, 2.35 µM; in the experiment on SN12C renal it was 1.85 µM; in the experiment with K-562 leukemia, 2.03 µM; with UO-31 renal, 1.48 µM; in the experiment on KM12 colon it was 2.13 µM. In addition, the GI50 was 2.66 µM in the experiment on A549 NSCLC, 1.76 µM in the experiment on A498 renal, 1.8 µM in the experiment on SF-539 CNS and 2.58 µM in the experiment on M14 melanoma. Besides, the TGI was 3.32 µM in the experiment with CAKI-1 renal; 5.39 µM in the experiment on NCI-H460 lung; 3.9 µM in the experiment with SN12C renal; 5.1 µM in the experiment with K-562 leukemia; 2.98 µM with UO-31 renal; 4.47 µM in the experiment with KM12 colon. The TGI amounted to 7.71 µM with A549 NSCLC, 6.98 µM in the experiment with A498 renal, 3.39 µM in the experiment with SF-539 CNS and 6.07 µM with M14 melanoma.
Turning to `CCn1ccnc1C(=O)/C=C/c1ccc(CC(=O)Nc2ccc(F)cc2)cc1`, the GI50 was 5.08 µM in the experiment on CAKI-1 renal; 2.64 µM in the experiment on NCI-H460 lung; 3.71 µM in the experiment with SN12C renal; 2.06 µM in the experiment with K-562 leukemia; 2.65 µM in the experiment on UO-31 renal; 3.06 µM with KM12 colon. Also, the GI50 in the experiment on A549 NSCLC was 4.16 µM; in the experiment on A498 renal it was 3.73 µM; in the experiment on SF-539 CNS it was 2.93 µM; with M14 melanoma, 3.02 µM. Further, the TGI in the experiment with CAKI-1 renal is over 16.7 µM; in the experiment with NCI-H460 lung, 6.51 µM; in the experiment on SN12C renal it was over 16.7 µM; with K-562 leukemia, over 16.7 µM; with UO-31 renal, 10.5 µM; with KM12 colon, 8.33 µM. Also, the TGI in the experiment on A549 NSCLC stood at 12.7 µM; with A498 renal it was 15.5 µM; in the experiment on SF-539 CNS, 6.15 µM; with M14 melanoma, 8.06 µM.
For `O=c1[nH]c(=S)[nH]c(-c2ccccc2)c1Cc1c(O)ccc2ccccc12`, the TGI in the experiment on CAKI-1 renal is over 100 µM; in the experiment on NCI-H460 lung, over 100 µM; in the experiment with SN12C renal, over 100 µM; in the experiment with K-562 leukemia, over 100 µM; in the experiment with UO-31 renal, 80.9 µM; in the experiment with KM12 colon, over 100 µM. Besides, the TGI in the experiment with A549 NSCLC was over 100 µM; with A498 renal, 44.7 µM; in the experiment on SF-539 CNS it was 82.1 µM; in the experiment on M14 melanoma it was 78.5 µM.
For `Nc1nc(C(=O)O)c(N=Nc2ccccc2)c(=O)[nH]1`, the TGI in the experiment on CAKI-1 renal, with NCI-H460 lung, in the experiment with SN12C renal, in the experiment with K-562 leukemia, with UO-31 renal and with KM12 colon was over 100 µM throughout. The TGI with A549 NSCLC, with A498 renal, in the experiment with SF-539 CNS and with M14 melanoma was over 100 µM in each case.
